According to patent US9884048B2, “ERK inhibitors” (Merck Sharp & Dohme Corp., priority 2014, dated 2018):

The molecules below were run against phosphorylated active hERK2 enzyme (Homo sapiens (Human), UniProt P28482). Conditions: read-out: ERK2 IC50; IMAP-FP assay; 0.5 nM hERK2, 30 μM ATP; 10 point titration, 3 μM starting concentration.
phosphorylated active hERK2 enzyme, sequence (P28482 whole entry): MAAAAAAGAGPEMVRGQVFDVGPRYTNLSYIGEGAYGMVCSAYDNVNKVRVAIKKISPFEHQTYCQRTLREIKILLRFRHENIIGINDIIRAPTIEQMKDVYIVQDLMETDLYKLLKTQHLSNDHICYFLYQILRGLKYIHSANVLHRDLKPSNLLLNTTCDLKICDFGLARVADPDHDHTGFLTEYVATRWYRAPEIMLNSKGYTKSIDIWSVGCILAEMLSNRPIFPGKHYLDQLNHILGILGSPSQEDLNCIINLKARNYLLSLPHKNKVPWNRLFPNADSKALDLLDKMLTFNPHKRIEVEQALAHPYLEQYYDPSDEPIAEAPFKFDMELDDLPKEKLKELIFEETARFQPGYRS
Work on `CCO[C@H]1CNC[C@@H]1NC(=O)Nc1cc2cnn(-c3ccnc(C)c3)c2cn1` [Example 272, 1-[(3S,4S)-4-ethoxypyrrolidin-3-yl]-3-[1-(2-methylpyridin-4-yl)-1H-pyrazolo[3,4-c]pyridin-5-yl]urea] yielded an IC50 of 39.9 nM. `Cc1cc(-n2ncc3cc(NC(=O)N[C@H]4CNC[C@@H]4Oc4cncc(F)c4)ncc32)ccn1` [Example 275, 1-{(3S,4S)-4-[(5-fluoropyridin-3-yl)oxy]pyrrolidin-3-yl}-3-[1-(2-methylpyridin-4-yl)-1H-pyrazolo[3,4-c]pyridin-5-yl]urea] was tested, and the IC50 was 327 nM. For `Cc1cc(-n2ncc3cc(NC(=O)N[C@H]4CN(C)C[C@@H]4Oc4cncc(F)c4)ncc32)ccn1` [Example 276, 1-{(3S,4S)-4-[(5-fluoropyridin-3-yl)oxy]-1-methylpyrrolidin-3-yl}-3-[1-(2-methylpyridin-4-yl)-1H-pyrazolo[3,4-c]pyridin-5-yl]urea], the IC50 was 242 nM. With `CCN1C[C@H](NC(=O)Nc2cc3cnn(-c4ccnc(C)c4)c3cn2)[C@@H](Oc2cncc(F)c2)C1` [Example 277, 1-{(3S,4S)-1-ethyl-4-[(5-fluoropyridin-3-yl)oxy]pyrrolidin-3-yl}-3-[1-(2-methylpyridin-4-yl)-1H-pyrazolo[3,4-c]pyridin-5-yl]urea] the IC50 was 594 nM. With `CCO[C@H]1CN(Cc2c(F)cccc2F)C[C@@H]1NC(=O)Nc1cc2cnn(-c3ccnc(C)c3)c2cn1` [Example 278, 1-[(3S,4S)-1-(2,6-difluorobenzyl)-4-ethoxypyrrolidin-3-yl]-3-[1-(2-methylpyridin-4-yl)-1H-pyrazolo[3,4-c]pyridin-5-yl]urea] the IC50 was 45.3 nM. Work on `CCO[C@H]1CN(Cc2ccccc2C(F)(F)F)C[C@@H]1NC(=O)Nc1cc2cnn(-c3ccnc(C)c3)c2cn1` [Example 279, 1-{(3S,4S)-4-ethoxy-1-[2-(trifluoromethyl)benzyl]pyrrolidin-3-yl}-3-[1-(2-methylpyridin-4-yl)-1H-pyrazolo[3,4-c]pyridin-5-yl]urea] yielded an IC50 of 1750 nM. For `Cc1cc(-n2ncc3cc(NC(=O)NC4CCN(Cc5ccccc5C#N)C4)ncc32)ccn1` (stereo not drawn) [Example 280, 1-[1-(2-cyanobenzyl)pyrrolidin-3-yl]-3-[1-(2-methylpyridin-4-yl)-1H-pyrazolo[3,4-c]pyridin-5-yl]urea], the IC50 was 4.35 nM. `Cc1cc(-n2ncc3cc(NC(=O)NC4CCN(Cc5cccnc5Cl)C4)ncc32)ccn1` (stereo not drawn) [Example 281, 1-{1-[(2-chloropyridin-3-yl)methyl]pyrrolidin-3-yl}-3-[1-(2-methylpyridin-4-yl)-1H-pyrazolo[3,4-c]pyridin-5-yl]urea] showed an IC50 of 2.84 nM. With `Cc1cc(-n2ncc3cc(NC(=O)N[C@H]4CCN(Cc5c(F)cccc5F)C4)ncc32)ccn1` [Example 282, 1-[(3S)-1-(2,6-difluorobenzyl)pyrrolidin-3-yl]-3-[1-(2-methylpyridin-4-yl)-1H-pyrazolo[3,4-c]pyridin-5-yl]urea] the IC50 was 169 nM. Work on `Cc1cc(-n2ncc3cc(NC(=O)N[C@@H]4CCN(Cc5c(F)cccc5F)C4)ncc32)ccn1` [Example 283, 1-[(3R)-1-(2,6-difluorobenzyl)pyrrolidin-3-yl]-3-[1-(2-methylpyridin-4-yl)-1H-pyrazolo[3,4-c]pyridin-5-yl]urea] yielded an IC50 of 0.323 nM. In the case of `Cc1cc(-n2ncc3cc(NC(=O)N[C@H]4CNC[C@@H]4Oc4ccc(F)cc4)ncc32)ccn1` [Example 284, 1-[(3S,4S)-4-(4-fluorophenoxy)pyrrolidin-3-yl]-3-[1-(2-methylpyridin-4-yl)-1H-pyrazolo[3,4-c]pyridin-5-yl]urea], the IC50 is reported as 24.1 nM. Work on `Cc1cc(-n2ncc3cc(NC(=O)N[C@H]4CN(C)C[C@@H]4Oc4ccc(F)cc4)ncc32)ccn1` [Example 285, 1-[(3S,4S)-4-(4-fluorophenoxy)-1-methylpyrrolidin-3-yl]-3-[1-(2-methylpyridin-4-yl)-1H-pyrazolo[3,4-c]pyridin-5-yl]urea] yielded an IC50 of 16.4 nM. `Cc1cc(-n2ncc3cc(NC(=O)NC[C@@H]4CCNC4)ncc32)ccn1` [Example 286, 1-[1-(2-methylpyridin-4-yl)-1H-pyrazolo[3,4-c]pyridin-5-yl]-3-[(3R)-pyrrolidin-3-ylmethyl]urea] showed an IC50 of 23.4 nM. `Cc1cc(-n2ncc3cc(NC(=O)NCC4(F)CNC4)ncc32)ccn1` [Example 287, 1-[(3-fluoroazetidin-3-yl)methyl]-3-[1-(2-methylpyridin-4-yl)-1H-pyrazolo[3,4-c]pyridin-5-yl]urea] gave an IC50 of 43.2 nM. `Cc1cc(-n2ncc3cc(NC(=O)NC4CNCC(c5ccccc5)C4)ncc32)ccn1` (stereo not drawn) [Example 288, 1-[1-(2-methylpyridin-4-yl)-1H-pyrazolo[3,4-c]pyridin-5-yl]-3-(5-phenylpiperidin-3-yl)urea] was tested, and the IC50 was 10.5 nM. `Cc1cc(-n2ncc3cc(NC(=O)NC[C@H]4CCN(C)C4)ncc32)ccn1` [Example 289, 1-[1-(2-methylpyridin-4-yl)-1H-pyrazolo[3,4-c]pyridin-5-yl]-3-{[(3R)-1-methylpyrrolidin-3-yl]methyl}urea] showed an IC50 of 36.6 nM. In the case of `Cc1cc(-n2ncc3cc(NC(=O)NC4CC(c5ccccc5)CN(C)C4)ncc32)ccn1` (stereo not drawn) [Example 290, 1-(1-methyl-5-phenylpiperidin-3-yl)-3-[1-(2-methylpyridin-4-yl)-1H-pyrazolo[3,4-c]pyridin-5-yl]urea], the IC50 is reported as 17.8 nM. Work on `CO[C@H]1CN(C)C[C@@H]1NC(=O)Nc1cc2cnn(-c3ccnc(C)c3)c2cn1` [Example 291, 1-[(3S,4S)-4-methoxy-1-methylpyrrolidin-3-yl]-3-[1-(2-methylpyridin-4-yl)-1H-pyrazolo[3,4-c]pyridin-5-yl]urea] yielded an IC50 of 46.4 nM. Work on `Cc1cc(-n2ncc3cc(NC(=O)N[C@@H](c4ccccc4)C(C)(C)O)ncc32)ccn1` [Example 292, (S)-1-(2-methyl-2-hydroxy-1-phenylpropyl)-3-(1-(2-methylpyridin-4-yl)-1H-pyrazolo[3,4-c]pyridin-5-yl)urea] yielded an IC50 of 0.558 nM. With `CCC(O)(CC)[C@@H](NC(=O)Nc1cc2cnn(-c3ccnc(C)c3)c2cn1)c1ccccc1` [Example 293, 1-[(1S)-2-ethyl-2-hydroxy-1-phenylbutyl]-3-[1-(2-methylpyridin-4-yl)-1H-pyrazolo[3,4-c]pyridin-5-yl]urea] the IC50 was 2.66 nM. For `Cc1cc(-n2ncc3cc(NC(=O)N[C@@H](c4ccc(F)cc4)C(C)(C)O)ncc32)ccn1` [Example 294, 1-[(1S)-1-(4-fluorophenyl)-2-hydroxy-2-methylpropyl]-3-[1-(2-methylpyridin-4-yl)-1H-pyrazolo[3,4-c]pyridin-5-yl]urea], the IC50 was 1.08 nM. `CC(C)(O)[C@@H](NC(=O)Nc1cc2cnn(-c3ccc(F)cc3)c2cn1)c1ccc(F)cc1` [Example 295, 1-[(1S)-1-(4-fluorophenyl)-2-hydroxy-2-methylpropyl]-3-[1-(4-fluorophenyl)-1H-pyrazolo[3,4-c]pyridin-5-yl]urea] gave an IC50 of 1.29 nM. For `CC(C)(O)[C@@H](NC(=O)Nc1cc2cnn(-c3ccc(F)cc3)c2cn1)c1ccccc1` [Example 296, 1-[1-(4-fluorophenyl)-1H-pyrazolo[3,4-c]pyridin-5-yl]-3-[(1S)-2-hydroxy-2-methyl-1-phenylpropyl]urea], the IC50 was 0.812 nM. For `Cc1cc(-n2ncc3cc(NC(=O)N[C@@H](c4ccccc4)C(C)O)ncc32)ccn1` (stereo partly drawn) [Example 297, (S)-1-(2-hydroxy-1-phenylpropyl)-3-(1-(2-methylpyridin-4-yl)-1H-pyrazolo[3,4-c]pyridin-5-yl)urea], the IC50 was 1.06 nM.
